Assay results: ChEMBL document CHEMBL4368926, “Arylpyridines, arylpyrimidines and related compounds as potential modulator agents of the VEGF, hTERT and c-Myc oncogenes” (Bioorg Med Chem, 2019)

How the values were obtained:
HT-29 [1] = experiment: Down-regulation of c-Myc mRNA expression in human HT-29 cells assessed as c-Myc mRNA level at 10 uM after 48 hrs by RT-qPCR analysis (reference value: 100%); type: functional
MCF7 = experiment: Cytotoxicity against human MCF7 cells assessed as decrease in cell viability after 2 days by MTT assay; type: functional, cell-based; details: MCF7, 48 h
HT-29 [2] = experiment: Down-regulation of c-Myc protein expression in human HT-29 cells assessed as c-Myc protein level at 10 uM after 48 hrs by ELISA (reference value: 100%); type: functional
[3] = Selectivity index, ratio of IC50 for HEK293 cells to IC50 for human MCF7 cells; details: HEK293 cells versus MCF7 cells
HT-29 [4] = experiment: Cytotoxicity against human HT-29 cells assessed as decrease in cell viability after 2 days by MTT assay; type: functional, cell-based; details: HT-29, 48 h
HT-29 [5] = experiment: Down-regulation of hTERT mRNA expression in human HT-29 cells assessed as hTERT mRNA level at 10 uM after 48 hrs by RT-qPCR analysis (reference value: 100%); type: functional
[6] = Selectivity index, ratio of IC50 for HEK293 cells to IC50 for human HT-29 cells; type: toxicity; details: HEK293 cells versus HT-29 cells, read-out: Ratio IC50
HEK293 = experiment: Cytotoxicity against HEK293 cells assessed as decrease in cell viability after 2 days by MTT assay; type: ADME, cell-based; details: Homo sapiens, HEK293, 48 h
HT-29 [7] = experiment: Down-regulation of VEGFA protein expression in human HT-29 cells assessed as VEGFA protein level at 10 uM after 48 hrs by ELISA (reference value: 100%); type: functional
HT-29 [8] = experiment: Down-regulation of VEGFRA mRNA expression in human HT-29 cells assessed as VEGFRA mRNA level at 10 uM after 48 hrs by RT-qPCR analysis (reference value: 100%); type: functional

Structure (SMILES): COc1cccc(N2CCCCC2)c1
- Activity (HT-29 [1]): 63%
- IC50 (MCF7): 160 µM
- Activity (HT-29 [2]): 100%
- selectivity ratio [3]: 3
- IC50 (HT-29 [4]): 26 µM
- Activity (HT-29 [5]): 30%
- selectivity ratio [6]: 20
- IC50 (HEK293): > 400 µM
- Activity (HT-29 [7]): 42%
- Activity (HT-29 [8]): 44%
